Laboratory results as given in PubChem BioAssay (NCI).
Values joined by “and” are separate entries in the source; they are usually repeats but may differ in a detail not shown here. Identical values can stand only once.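 96-well plates; 48 h exposure; 5 concentrations. Endpoints by linear interpolation between flanking doses. Not reached: highest tested concentration assigned. Abbreviation: GI50, concentration required for 50% inhibition of growth. TGI is the concentration that stops growth completely.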

How the values were obtained:
Experiment in all cases: NCI tumour cell line growth inhibition, 48 h
[1] = system: XF 498 CNS
[2] = system: LXFL 529 NSCLC
[3] = system: DLD-1 colon
[4] = system: RXF-631 renal
[5] = system: BT-549 breast
[6] = system: MDA-MB-231 breast
[7] = system: MCF7 breast
[8] = system: HS 578T breast
[9] = system: T-47D breast
[10] = system: PC-3 prostate
[11] = system: NCI/ADR-RES ovarian

| SMILES | TGI [1] [µM] | TGI [2] [µM] | TGI [3] [µM] | TGI [4] [µM] | other results |
| --- | --- | --- | --- | --- | --- |
| O=c1cnn2c(n1)sc1ccc3ccccc3c12 | > 100 | > 100 | > 100 | – | – |
| NC(=S)N/N=C1/C(=O)N(c2ccc(Cl)cc2Cl)C(=O)C(=O)C1c1nc2ccccc2s1 (stereo not given) | > 100 | > 100 | – | – | – |
| Nc1nc2nc[nH]c2c(=O)[nH]1 | > 100 | > 100 | > 100 | – | – |
| O=C1CCC2(CC1)SCCCS2 | > 100 | > 100 | > 100 | – | – |
| Cc1cc(Cl)cc2c1NC(=O)C2(O)C(C)C(=O)c1ccc(Cl)cc1 (stereo not given) | > 100 | > 100 | > 100 | – | – |
| c1ccc(CN(Cn2cccn2)Cn2cccn2)nc1 | > 100 | > 100 | > 100 | > 100 | – |
| COc1ccc(/C=C2\CCC(C)(CN(C)C)C2=O)cc1 (stereo not given) | > 100 | > 100 | > 100 | > 100 | – |
| Nc1c(-c2ccc(Cl)cc2Cl)[n+]([O-])c2ccccc2[n+]1[O-] | > 100 | > 100 | > 100 | > 100 | – |
| Cc1cc(Cl)ccc1N=C1NC(=O)C(CC(=O)Nc2ccc(Cl)cc2Cl)S1 (stereo not given) | > 100 | > 100 | > 100 | > 100 | – |
| CC12CCC[C@@](C)(C(=O)OC3OC(CO)C(O)C(O)C3O)[C@H]1CCC13CC4CC(OC4(CO)[C@H]1O)[C@@H]23 (stereo not given in full) | > 100 | > 100 | > 100 | > 100 | – |
| O=[N+]([O-])c1nccn1COCCF | > 100 | > 100 | > 100 | – | – |
| COC(=O)C1=C(CO)C2C=CC1C2 (stereo not given) | > 100 | > 100 | > 100 | > 100 | – |
| O=c1c2ccccc2c2nc3ccccc3nc2n1C1CCCCC1 | – | > 100 | – | – | – |
| OCC12C3C4C1C1C2C3C41CO (stereo not given) | > 100 | > 100 | > 100 | > 100 | – |
| CS(=O)(=O)Nc1ccc(Nc2c3ccccc3nc3ccccc23)cc1 | 14.9 | 18.7 | 24.7 | 16.9 | TGI [5]: 39.4 µM; TGI [6]: 17.8 µM; TGI [7]: 13 µM; TGI [8]: 49.3 µM; TGI [9]: 21 µM; TGI [10]: 19.3 µM; TGI [11]: 41.8 µM |
| CC1=C(C(=O)Nc2ccc(Cl)c(Cl)c2)C(c2ccco2)C(C(=O)Nc2ccc(Cl)c(Cl)c2)=C(C)N1 | 7.94 | 24.2 | 23.4 | 46 | – |
| CC(C)(C)C(=O)C1CC(=O)c2ccccc2C1=O (stereo not given) | > 100 | – | > 100 | > 100 | – |
| CC1=C(C(=O)NCc2ccccc2)C(c2ccccc2[N+](=O)[O-])C(C(=O)NCc2ccccc2)=C(C)N1 | 31.9 | 23.1 | 20.3 | 29.2 | – |

| SMILES | TGI [1] [µM] | TGI [2] [µM] | TGI [3] [µM] | TGI [4] [µM] | other results |
| --- | --- | --- | --- | --- | --- |
| O=C(NO)C12C3C4C1C1C2C3C41C(=O)NO (stereo not given) | – | > 100 | > 100 | – | – |
| Cc1cc(O)cc2c1O[C@@]1(C)CCC3[C@@]4(C)CC[C@H](O)C(C)(C)C4CC[C@@]3(C)[C@H]1C2 (stereo not given in full) | – | 7.64 | 12.6 | – | – |
| O=C1C(=O)C(Br)(Br)C(Br)=C1Br | – | 29 | 41.4 | > 100 | – |
| C1=Cc2nc1c(-c1ccncc1)c1ccc([n-]1)c(-c1ccncc1)c1nc(c(-c3ccncc3)c3ccc([n-]3)c2-c2ccncc2)C=C1.[Zn+2] | > 100 | > 100 | > 100 | > 100 | – |
| Nc1ccn(C2CC(CO)C(O)C2O)c(=O)n1 (stereo not given) | – | > 57.7 | > 57.7 | > 57.7 | – |
| NC1=N/C(=C2/CCNC(=O)c3[nH]c(Br)cc32)C(=O)N1 | > 100 | – | > 100 | – | TGI [5]: 53.3 µM; TGI [6]: 16.2 µM; TGI [7]: > 100 µM; TGI [8]: > 91.2 µM; TGI [9]: 51.8 µM; TGI [10]: > 100 µM; GI50 [11]: 11.9 µM and > 43.3 µM; TGI [11]: > 100 µM |
| CC(C)=CC(=O)Cc1nc2cc(C)c(C)cc2[nH]c1=O | – | > 100 | > 100 | > 100 | – |
| CC1OC(OCC2COC(O)(Oc3c(-c4ccc(O)c(O)c4)oc4cc(O)cc(O)c4c3=O)C(O)C2O)C(O)C(O)C1O (stereo not given) | > 100 | > 100 | > 100 | > 100 | – |
| O=C1OC(O)C(Oc2ccc(Cl)cc2)=C1Cl (stereo not given) | – | > 100 | > 100 | > 100 | – |
| CN(C)CC1(C)CC/C(=C\c2ccccc2)C1=O (stereo not given) | > 100 | – | > 100 | > 100 | – |
| N#CCCN(c1ccc(-c2nnc(NC(=O)CNNC(=O)CC(=O)Nc3ccccc3)s2)cc1)S(=O)(=O)c1ccccc1 | > 100 | > 100 | > 100 | > 100 | – |
| CO[C@@H]1[C@H](OC(=O)NC(=O)CCl)CC[C@]2(CO2)[C@H]1[C@@]1(C)O[C@@H]1CC=C(C)C | – | 20.9 | 42 | 3.14 | GI50 [5]: 16.8 µM; TGI [5]: 37.6 µM and 59.1 µM; GI50 [6]: 4.28 µM; TGI [6]: 38.1 µM and 12.7 µM; GI50 [2]: 6.1 µM; GI50 [7]: 10.7 µM; TGI [7]: 44.4 µM and 180 µM; TGI [8]: 63.7 µM and 157 µM; GI50 [9]: 4.03 µM; TGI [9]: 41.9 µM and 68.9 µM; GI50 [10]: 25.3 µM; TGI [10]: 28.6 µM and 57.2 µM; GI50 [11]: 27.9 µM; TGI [11]: 62.4 µM and 111 µM; GI50 [3]: 5.1 µM |
| COc1ccc(C(c2c(O)c3ccccc3n(C)c2=O)c2c(O)c3ccccc3n(C)c2=O)cc1 | > 100 | > 100 | > 100 | > 100 | – |
| CC(C)(C)c1ccc(C(O)c2ccc(C(C)(C)C)cc2)cc1 | 28.4 | 29 | 28.3 | – | – |
| CN(C)CCNC(=O)c1cccc2[nH]c(-c3ccccc3)nc12 | – | – | 39.2 | 57.9 | – |
| Cc1ccc(C)c(NC(=O)CC/C(=N\NC(=O)C(N)=O)C(C)C(=O)c2ccc(O)cc2)c1 (stereo not given) | – | > 100 | > 100 | > 100 | – |
| O=C(Nc1nc2ncn(CC(COc3ccccc3)OC(=O)c3ccccc3)c2c(=O)[nH]1)c1ccccc1 (stereo not given) | > 100 | – | – | > 100 | – |
| CCCCCCCC[N+](C)(CCCCCCCC)CCCCCCCC | – | – | – | – | GI50 [5]: 0.309 µM; TGI [5]: 0.977 µM; GI50 [6]: 0.338 µM; TGI [6]: 1.26 µM; GI50 [7]: 0.322 µM; TGI [7]: 1.14 µM; GI50 [8]: 0.471 µM; TGI [8]: 2.99 µM; GI50 [9]: 0.258 µM; TGI [9]: 1.73 µM; GI50 [10]: 0.24 µM; TGI [10]: 1.02 µM; GI50 [11]: 1.51 µM; TGI [11]: 3.23 µM |
